# Calls of active or inactive are those of the source. The rule behind the calls is not given here.
# Experiments:
# Chloride [1] = test: Binding affinity to chloride anions assessed as anionophoric activity in egg-yolk L-alpha-phosphatidylcholine liposome model measured per lipid by pyranine-based fluorescent assay
# Chloride [2] = test: Binding affinity to chloride anions using tetrabutylammonium chloride salt assessed as association constant by 1H NMR spectroscopy
# Chloride [3] = test: Binding affinity to chloride anions assessed as fold increase in anionophoric activity in egg-yolk L-alpha-phosphatidylcholine liposome model measured per lipid by pyranine-based fluorescent assay relative to m-Bimbe
# Chloride [4] = test: Binding affinity to chloride anions assessed as chloride efflux in egg-yolk L-alpha-phosphatidylcholine liposome model measured per lipid in presence of intravesicular NaCl/extravesicular NaNO3 by chloride ion selective electrode technique
# Liposome = test: Disruption of egg-yolk L-alpha-phosphatidylcholine liposome model membrane assessed as calcein leakage by fluorescence based assay; type: subcellular
# Chloride [5] = test: Binding affinity to chloride anions assessed as transport of chloride anions across bulky nitrobenzene membrane in U-shaped tube harboring NaCl in donor phase and NaNO3 in receiving phase at 1 mM measured for 12 hrs by chloride ion selective electrode technique
# Chloride [6] = test: Binding affinity to chloride anions in human HeLa cells assessed as decrease in orange fluorescence in cytoplasm at 5 uM incubated for 6 hrs by AO staining based analysis relative to control; type: cell-based; set-up: scale not given: the % may be the effect or the level left
# Chloride [7] = test: Binding affinity to chloride anions in human HeLa cells assessed as increase in green fluorescence in cytoplasm at 5 uM incubated for 6 hrs by AO staining based analysis; type: cell-based
# Chloride [8] = test: Binding affinity to chloride anions in human HeLa cells assessed as decrease in red fluorescence in cytoplasm at 5 uM incubated for 1.5 hrs by MR-(RR)2 staining based analysis; type: cell-based
# Chloride [9] = test: Binding affinity to chloride anions in human HeLa cells assessed as chloride influx up to 5 uM incubated for 2 hrs by MQAE staining based analysis; type: cell-based
# HeLa [10] = test: Cytotoxicity against human HeLa cells incubated for 48 hrs by MTT assay; type: functional, cell-based
# A549 = test: Cytotoxicity against human A549 cells incubated for 48 hrs by MTT assay; type: functional, cell-based; settings: A549, 48 h
# MCF7 = test: Cytotoxicity against human MCF7 cells incubated for 48 hrs by MTT assay; type: functional, cell-based; settings: MCF7, 48 h
# HepG2 = test: Cytotoxicity against human HepG2 cells incubated for 48 hrs by MTT assay; type: functional, cell-based; settings: HepG2, 48 h
# HeLa [11] = test: Antitumor activity against human HeLa cells xenografted in male Balb/C nude mouse assessed as average tumor size at 2 mg/kg, ip administered on every 2 days measured after 18 days (reference value: 1995.1 mm3); type: functional; settings: time 18 day
# [12] = Toxicity in male Balb/C nude mouse xenografted with human HeLa cells assessed as body weight change at […], ip administered on every 2 days measured after 18 days; type: organism-based; settings: in vivo, 432 h, time 18 day
Structure (SMILES),EC50 (Chloride [1]),Ka (Chloride [2]),fold change (FC) (Chloride [3]),EC50 (Chloride [4]) [mol%],Activity (Liposome),Activity (Chloride [5]),Activity (Chloride [6]),Activity (Chloride [7]),Activity (Chloride [8]),Activity (Chloride [9]),IC50 (HeLa [10]) [µM],IC50 (A549) [µM],IC50 (MCF7) [µM],IC50 (HepG2) [µM],Activity (HeLa [11]) [mm3],Activity [12]
O=[N+]([O-])c1cc(-c2nc3cc(F)c(C(F)(F)F)cc3[nH]2)cc(-c2nc3cc(F)c(C(F)(F)F)cc3[nH]2)c1,2.37 10^-2mol%,4.95 10^3/M,4.08 10^2No_unit,0.11,inactive,Active,100%,Active; The Result Indicates That Compound Basify Acidic Organelles,Active; The Result Reveals That Compound Can Alkalize Lysosomes,Active,4.23,10.2,3.4,2.2,,
FC(F)(F)c1cc(C(F)(F)F)c2nc(-c3cccc(-c4nc5c(C(F)(F)F)cc(C(F)(F)F)cc5[nH]4)c3)[nH]c2c1,0.27 mol%,2.93 10^4/M,35.8,1.92,inactive,Active,Active; The Result Indicates That Compound Basify Acidic Organelles,Active; The Result Indicates That Compound Basify Acidic Organelles,Active; The Result Reveals That Compound Can Alkalize Lysosomes,Active,2.84,1.49,2.4,8.3,,
Fc1cc(-c2nc3cc(F)c(C(F)(F)F)cc3[nH]2)cc(-c2nc3cc(F)c(C(F)(F)F)cc3[nH]2)c1,3.79 10^-2mol%,1.01 10^3/M,2.55 10^2No_unit,0.2,inactive,Active,Active; The Result Indicates That Compound Basify Acidic Organelles,Active; The Result Indicates That Compound Basify Acidic Organelles,,,3.9,3.97,3.33,3.13,,
COc1cccc2c1C(=O)c1c(O)c3c(c(O)c1C2=O)C[C@@](O)(C(=O)CO)C[C@@H]3O[C@H]1C[C@H](N)[C@H](O)[C@H](C)O1 [DOXORUBICIN],,,,,,,,,,,0.11,,0.26,2.3,1093.2,Toxic
O=[N+]([O-])c1cc(-c2nc3c(C(F)(F)F)cc(C(F)(F)F)cc3[nH]2)cc(-c2nc3c(C(F)(F)F)cc(C(F)(F)F)cc3[nH]2)c1,5.34 10^-3mol%,6.58 10^3/M,1.81 10^3No_unit,0.02,inactive,Active,100%,Active; The Result Indicates That Compound Basify Acidic Organelles,Active; The Result Reveals That Compound Can Alkalize Lysosomes,Active,9.67,10.5,10.8,16.5,,
Fc1cc2nc(-c3cccc(-c4nc5cc(F)c(C(F)(F)F)cc5[nH]4)c3)[nH]c2cc1C(F)(F)F,0.64 mol%,6.96 10^3/M,15.1,4.11,inactive,Active,Active; The Result Indicates That Compound Basify Acidic Organelles,Active; The Result Indicates That Compound Basify Acidic Organelles,,,18.3,28.8,11.2,11.2,,
O=[N+]([O-])c1cc(-c2nc3ccc(C(F)(F)F)cc3[nH]2)cc(-c2nc3ccc(C(F)(F)F)cc3[nH]2)c1,2 10^-3mol%,5.25 10^3/M,4.84 10^3No_unit,0.3,inactive,Active,Active; The Result Indicates That Compound Basify Acidic Organelles,Active; The Result Indicates That Compound Basify Acidic Organelles,Active; The Result Reveals That Compound Can Alkalize Lysosomes,Active,8.33,7.78,8.6,6.8,,
FC(F)(F)c1ccc2nc(-c3cccc(-c4nc5ccc(C(F)(F)F)cc5[nH]4)c3)[nH]c2c1,9.67 mol%,3.51 10^3/M,,> 10,inactive,Active,Not active; Only Slight Activity Was Observed,Not active; Only Slight Activity Was Observed,,,12.3,12.8,10.5,10.6,,
Fc1cc(-c2nc3ccc(C(F)(F)F)cc3[nH]2)cc(-c2nc3ccc(C(F)(F)F)cc3[nH]2)c1,1.54 10^-2mol%,1.17 10^4/M,6.28 10^2No_unit,0.94,inactive,Active,Active; The Result Indicates That Compound Basify Acidic Organelles,Active; The Result Indicates That Compound Basify Acidic Organelles,,,3.53,4.53,3.17,1.67,,
c1cc(-c2nc3ccccc3[nH]2)cc(-c2nc3ccccc3[nH]2)c1,2.76 10^-3mol%,1.45 10^4/M,3.5 10^3No_unit,0.06,,,,,,,,,,,,

# — ChEMBL document CHEMBL6178013, “Ferroptosis of Cancer Cells via Tubulin Degradation and Mitochondrial Dysfunction: A Novel Mechanism of Anticancer Effect for Small-Molecule Anion Transporters” (J Med Chem, 2025)
